Reference: US20150342897A1, “POLYPEPTIDE LOADED POCA NANOPARTICLES FOR ORAL ADMINISTRATION” (Glaxo Group Limited, priority 2012, published 2015)

Test: Reduction in blood glucose levels after single i.v. dose
Type: in vivo, C57BL/6 mice
Conditions: single i.v. dose equivalent to 1 μg/100 μl
Description: C57BL/6 mice were given a single i.v. dose of exendin-4 loaded POCA nanoparticles (equivalent to 2 μg peptide/100 μl), non encapsulated (free) exendin-4 peptide (equivalent to 1 μg/100 μl) or saline as a control. In order to monitor blood glucose levels, 2-3 μl blood samples were taken from the peripheral tail vein of each animal prior to dosing and again at 0.5, 1, 2, 3, 4 and 8 hours post dose. Each sample was analysed using a hand held glucose monitor (BAYER […] BREEZE 2TM).

Question: What does the source list for exendin-4 [non encapsulated exendin-4]?
Answer: reduction in blood glucose levels from baseline (2 hours post dose, FIG. 3): ~30%; blood glucose levels at 8 hours post dose (8 hours post dose): returned to baseline
